Legend:
[1] = system: MCA205 fibrosarcoma; test: Subcutaneous MCA205 fibrosarcoma: tumor growth, cure and survival under chemo-immunotherapy; type: in vivo, C57B1/6 mice; details: for Complete responses leading to tumor eradication: endpoint 50 days after chemotherapy; for Efficacy of MTX + ICIs (anti-PD-1 plus anti-CTLA-4) chemo-immunotherapy when the CRM is added: figure legends FIG. 2, 3, 4, 6
Procedure: Mouse strain and housing. Six- to 8-week-old wild-type female C57B1/6 mice were obtained from Envigo RMS SARL (Gannat, France). Animals were maintained in specific pathogen-free conditions in a temperature-controlled environment with 12 h light, 12 h dark cycles and received food and water ad libitum (unless precised otherwise). Animal experiments were in compliance with the EU Directive 63/2010 and approved by the Ethical Committee of the Cordeliers Research Center (Paris, France). All mouse experiments were randomized and blinded, and sample sizes were calculated to detect a statistically significant effect.
In vivo experimentations. Tumor engraftment was performed through subcutaneous injection of 3×10^5 MCA205 fibrosarcoma tumor cells (in 100 μl PBS) in the right flank of the mice. Tumor volume was monitored using a digital caliper and calculated according to the formula: volume=length×width×height/8×4/3 pi. When tumor reached 20 mm^3 on average, mice underwent fasting (48 hours without food but ad libitum access to water) or were given caloric restriction mimetics (CRMs) such as aspirin (Asp; 10 mg/kg i.p. in 200 μl phosphate buffered saline [PBS] five times per week), hydroxycitrate (HC; 5 mg/ml in drinking water daily) or spermidine (Spd; 50 mg/kg i.p. in 200 μl Earle's balanced salt solution three times per week), or were treated with mitoxantrone (MTX; 5.17 mg/kg i.p. in 200 μl PBS), or with the immune checkpoint inhibitors (ICIs) anti-PD-1 (10 mg/kg i.p. in 200 μl PBS) and/or anti-CTLA-4 (5 mg/kg i.p. in 200 μl PBS). Tumor size was carefully monitored up to 50 days post-MTX. Antitumor immunity induced by the treatment in cured mice was challenged by subcutaneously re-engrafting the same tumor (3×10^5 syngeneic MCA205 fibrosarcoma cells) in one flank while an antigenically unrelated cancer (3×10^5 syngeneic TC1 lung carcinoma cells) was implanted into the contralateral flank.
Statistical analyses. For tumor size comparison, Student unpaired t test or one-way ANOVA (Holm-Sidak) were performed. All statistical analyses were performed using GraphPad Prism version 6 for Windows (GraphPad Software, La Jolla, Calif., USA). Differences were considered significant when p value<0.05.

[2] = system: PD-L2; test: PD-L2 expression in tumor cells; type: in vivo, C57B1/6 mice; details: data not shown
Procedure: 3 or 11 days post-chemotherapy (d3 or d11), mice were euthanized and the tumors were withdrawn and placed in gentleMACS C tubes (ref 130-096-334 from Miltenyi Biotec™) previously filled with 1 ml of DMEM or RPMI medium, and immediately put on ice. After a mechanical (with scissors) and chemical digestion (thanks to the tumor dissociation kit and the gentleMACS Octo Dissociator, ref 130-096-730 and 130-096-427, respectively, from Miltenyi Biotec™), tumors were filtered (using MACS smartstrainers […], ref 130-110-916 from Miltenyi Biotec™), washed twice with PBS and distributed in a 96-wells round bottom plate.
Then, cells were stained with a live dead dye (ref L34959 from ThermoFisher Scientific™) and an FCblock receptor targeting antibody. […] Finally, cells were resuspended in FACS buffer and analyzed on a flow cytometer BD LSR II.

[3] = HC + MTX chemotherapy + immunotherapy (anti-PD-1 plus anti-CTLA-4)

Compound	Complete responses at day 30 [1, 3]	Stable response [1, 3]	Reduction of tumor growth ([1]; HC in drinking water + MTX chemotherapy + immunotherapy, versus all other groups)	Reduction of tumor growth and prolongation of survival ([1]; HC+MTX versus MTX alone, data not shown)	Complete responses leading to tumor eradication ([1]; MTX plus HC)	Tumor-free mice ([1]; MTX pre-treatment associated with the CRM, then CTLA-4/PD-1-blocking antibodies (FIG. 6))	Efficacy of MTX + ICIs (anti-PD-1 plus anti-CTLA-4) chemo-immunotherapy when the CRM is added [1]	Efficacy of MTX + ICIs (anti-PD-1 plus anti-CTLA-4) chemo-immunotherapy when the CRM is added ([1]; listed as Hydroxycitrate)	Response to CTLA-4/PD-1-blockade ([1]; pretreated with the CRM alone (without MTX), data not shown)	Effect of co-treatment on MTX-induced PD-L2 increase in CD45- cells [2]	Complete responses leading to tumor eradication ([1]; MTX plus immunotherapy (antibodies blocking CTLA-4 or PD-1))	Complete responses leading to tumor eradication ([1]; MTX plus isotypes)	Complete cure ([1]; MTX pretreatment, then CTLA-4/PD-1-blocking antibodies from day 8 post-chemotherapy (FIG. 6))	PD-L2 expression in CD45- cells ([2]; MTX)
O=C(O)CC(O)(C(=O)O)C(O)C(=O)O (centres unmarked) [HC, hydroxycitrate]	all animals of the group	7 out of 8	more efficient in reducing tumor growth than all other groups	more successful in reducing tumor growth and in prolonging survival than MTX alone	either not seen at all or rare	7 out of 10	further enhanced	enhances tumor growth control	did not respond	not affected				
O=C1c2c(O)ccc(O)c2C(=O)c2c(NCCNCCO)ccc(NCCNCCO)c21 [MTX, mitoxantrone]											either not seen at all or rare	either not seen at all or rare	3 out of 10	increase

Reference: patent US20210030703A1, “USE OF CALORIC RESTRICTION MIMETICS FOR POTENTIATING CHEMO-IMMUNOTHERAPY FOR THE TREATMENT OF CANCERS” (INSERM (INSTITUT NATIONAL DE LA SANTÉ ET DE LA RECHERCHE …, priority 2018, published 2021)
